Reference: EP1149074B1, “ACETYLENIC SULFONAMIDE THIOL TACE INHIBITORS” (Wyeth Holdings Corporation, priority 1999, dated 2000)

What was measured:
THP-1 cells = test: Human monocytic THP-1 cell differentiation assay for soluble proteins (THP-1 soluble protein assay); type: cell-based; details: LPS-stimulated THP-1 cells; quantity, unit and concentration not given
Text: Human Monocytic THP-1 Cell Differentiation Assay For Soluble Proteins (THP-1 Soluble Protein Assay)
Mitogenic stimulation of THP-1 cells cause differentiation into macrophage like cells with concomitant secretion of tumor necrosis factor (TNF-α) and TNF receptor (TNF-R p75/80 and TNF-R p55/60) and Interleukin-8 (IL-8), among other proteins. In addition, non-stimulated THP-1 cells shed both the p75/80 and the […] receptors over time. The release of membrane bound TNF-α and possibly TNF-R p75/80 and TNF-R p55/60, but not IL-8, is mediated by an enzyme called TNF-α converting enzyme or TACE.
THP-1 cells (from ATCC) are a human monocytic cell line which were obtained from the peripheral blood of a person with acute monocytic leukemia. They can be grown in culture and differentiated into macrophage like cells by stimulation with mitogens.
For the assay, THP-1 cells are seeded from an ATCC stock which was previously grown and frozen back at 5 x 10^6/ml/vial. […]
To perform an assay, the THP-1 cells are co-incubated in a 24 well plate with […] of a 24 mg/ml stock of Lipopolysacharide (LPS) (Calbiochem Lot# B13189) at 37°C in 5% CO2 at a concentration of 1.091 x 10^6 cells/ml (1.1 ml/well) for a total of 24 hours. […] Compounds can be evaluated for their effect on basal (non-stimulated) shedding of the receptors by replacing the LPS with […] of THP-1 media. […]
In addition, at the 24 hours timepoint, and the cells for each treatment group are collected by resuspension in 500 µl/well of THP-1 media and transferred into a FACS tube. […] The samples are run on a Becton Dickinson FaxCaliber FLOW cytometry machine and the amount of dye taken up by each cell is measured in the high red wavelength (FL3). […] The percent of live cells is calculated by the number of cells not stained with PI, divided by the total number of cells in the sample. The viability values calculated for the drug treated groups were compared to the viability value calculated for the vehicle treated mitogen stimulated group ("vehicle positive control") to determine the "percent change from control". […]

TACE = TACE (Homo sapiens, UniProt P78536); test: TACE inhibition test procedure (fluorescent peptidyl substrate); type: biochemical
Sequence of TACE (P78536 215-824): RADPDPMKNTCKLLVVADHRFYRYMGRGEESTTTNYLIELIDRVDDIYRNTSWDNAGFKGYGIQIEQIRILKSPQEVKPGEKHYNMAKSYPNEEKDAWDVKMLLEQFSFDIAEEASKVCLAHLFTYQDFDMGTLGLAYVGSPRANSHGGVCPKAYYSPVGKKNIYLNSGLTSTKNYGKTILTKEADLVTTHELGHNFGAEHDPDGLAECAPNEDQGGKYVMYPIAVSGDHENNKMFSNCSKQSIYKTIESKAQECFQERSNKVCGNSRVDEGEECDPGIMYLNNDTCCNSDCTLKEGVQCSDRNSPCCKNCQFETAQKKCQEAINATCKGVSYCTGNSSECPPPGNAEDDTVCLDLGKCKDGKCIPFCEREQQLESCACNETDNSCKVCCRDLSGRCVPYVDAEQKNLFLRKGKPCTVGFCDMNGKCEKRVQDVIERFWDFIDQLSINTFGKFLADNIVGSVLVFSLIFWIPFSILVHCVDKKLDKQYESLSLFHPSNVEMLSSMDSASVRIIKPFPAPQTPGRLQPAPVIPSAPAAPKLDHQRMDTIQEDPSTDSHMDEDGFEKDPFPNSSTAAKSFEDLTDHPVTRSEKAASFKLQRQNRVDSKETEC
Method: Test Procedure for Measuring TACE Inhibition
Using 96-well black microtiter plates, each well receives a solution composed of 10 µL TACE (final concentration 1µg/mL), 70µL Tris buffer, pH 7.4 containing 10% glycerol (final concentration 10 mM), and 10 µL of test compound solution in DMSO (final concentration 1µM, DMSO concentration <1%) and incubated for 10 minutes at room temperature. The reaction is initiated by addition of a fluorescent peptidyl substrate (final concentration 100 µM) to each well and then shaking on a shaker for 5 sec.
The reaction is read (excitation 340 nm, emission 420 nm) for 10 min. and the increase in fluorescence over time is plotted as a linear line. The slope of the line is calculated and represents the reaction rate.
The linearity of the reaction rate is confirmed (r^2 >0.85). The mean (x±sem) of the control rate is calculated and compared for statistical significance (p<0.05) with drug-treated rates using Dunnett's multiple comparison test. Dose-response relationships can be generate using multiple doses of drug and IC50 values with 95% CI are estimated using linear regression.

CC#CCOc1ccc(S(=O)(=O)N(C)[C@H](C)CS)cc1 [Example 8, 4-But-2-ynyloxy-N-((1R)-2-mercapto-1-methyl-ethyl)-N-methyl-benzenesulfonamide]
THP (THP-1 cells): 3

CC#CCOc1ccc(S(=O)(=O)N(CCN2CCOCC2)[C@@H](CS)C(N)=O)cc1 [Example 15, (2R)-2-{{[4-(2-Butynyloxy)phenyl]sulfonyl}[2-(4-morpholinyl)ethyl]amino}-3-sulfanylpropanamide]
IC50 (TACE): 263 nM
THP (THP-1 cells): 19

CC#CCOc1ccc(S(=O)(=O)N(CCN2CCOCC2)[C@H](C)CS)cc1 [Example 11, 4-(2-Butynyloxy)-N-[(1R)-1-methyl-2-sulfanylethyl]-N-[2-(4-morpholinyl)ethyl]benzenesulfonamide]
IC50 (TACE): 362 nM
THP (THP-1 cells): 11
